Laboratory results as given in US20150119363A1, “METHODS OF TREATING BACTERIAL INFECTIONS” (Rampex Pharmaceuticals, Inc., priority 2012, published 2015).
Counter-ions that a name gives are not always drawn.

Assays:
[1] = biological target: T1, KPC-3 (Escherichia coli EC1007 lysate) (Klebsiella pneumoniae, UniProt Q9F663, H272Y); assay: Inhibition of biapenem hydrolysis by bacterial lysate; type: biochemical
T1 construct: Lysates were prepared from bacteria expressing various β-lactamases as a source of enzymes; endogenous in cells; host or cells: Escherichia coli strain EC1007 (freeze-thaw lysate supernatant)
T1 sequence (Q9F663 25-293 H272Y): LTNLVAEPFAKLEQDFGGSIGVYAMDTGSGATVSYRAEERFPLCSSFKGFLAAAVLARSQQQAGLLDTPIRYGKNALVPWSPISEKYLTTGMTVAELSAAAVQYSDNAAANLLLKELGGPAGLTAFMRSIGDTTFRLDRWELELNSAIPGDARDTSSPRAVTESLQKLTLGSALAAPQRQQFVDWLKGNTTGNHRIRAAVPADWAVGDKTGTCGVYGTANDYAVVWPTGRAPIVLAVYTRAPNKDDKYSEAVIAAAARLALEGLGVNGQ
Procedure: (§1) The activity of β-lactamase inhibitors to inhibit hydrolysis of biapenem was studied. Lysates were prepared from bacteria expressing various β-lactamases as a source of enzymes. Bacterial lysates were prepared as follows. A single colony from the fresh overnight plate was transferred to 5 mL of LB broth and grown to OD600=0.6-0.8. Next, this culture was transferred to 500 mL of LB and grown to OD600=0.7-0.9. Cells were pelleted by centrifugation at 5000 RPM (JA-14 rotor) for 15 minutes at room temperature. The pellet was resuspended in 10 mL of PBS. Five freeze-thaw cycles by putting cells at −20° C. and thawing them at the room temperature were next applied. After the last thaw step cells were spun down at 18K for 30 minutes and the supernatant was collected. This lysate was stored at −20° C.
(§2) Next, the activity of bacterial lysates was optimized for biapenem cleavage as follows. 50 μl of buffer A (50 mM Sodium Phosphate pH=7; 0.5% glucose, 1 mM MgCl2) was added to each well of 96-well UV-transparent plate. 50 μl of lysate was titrated vertically in 96-well plate column to generate 2-fold lysate dilutions. 100 μl of buffer A was added to each well, placed in plate reader at 37° C. and incubated for 15 minutes. 50 μl of 50 μg/mL solutions of biapenem in buffer A (pre-incubated at 37° C. for 15 minutes) were added to each well. Hydrolysis of biapenem was measured at 296 nm. This experiment was used to determine the optimal lysate dilution which produced a linear curve of relative UV signal that decreased to approximately OD=0.3-0.5 over 1 hour.
(§3) Finally, the potency of cyclic boronic acid derivative to inhibit the cleavage of biapenem cleavage by bacterial lysates was determined. 100 μl of buffer A (50 mM Sodium Phosphate pH=7; 0.5% glucose, 1 mM MgCl2) was added to each well of 96-well UV-transparent plate. 50 μl of 6× cyclic boronic acid derivative solution in buffer A was titrated vertically in 96-well plate column to generate 3-fold dilutions. 50 μl of diluted lysate in buffer A (optimal dilution is determined in experiment above) was added, and the plate was incubated in the plate reader at 37° C. for 15 minutes. 50 μl of 50 μg/mL solution of biapenem in buffer A (pre-incubated at 37° C. for 15 minutes) were next added to each well and hydrolysis of biapenem was recorded at 296 nm. EC50 of inhibition was determined by plotting the rate of biapenem cleavage vs. cyclic boronic acid derivative concentration.

[2] = biological target: T2, SME-2 (Serratia marcescens SM1000 lysate) (Serratia marcescens, UniProt P52682); assay: as above; type: biochemical; settings: read-out: IC50 (μg/mL) of inhibition of biapenem hydrolysis; SM1000 SME-2 lysate
T2 construct: Lysates were prepared from bacteria expressing various β-lactamases as a source of enzymes
T2 sequence (P52682 28-294 limits assumed): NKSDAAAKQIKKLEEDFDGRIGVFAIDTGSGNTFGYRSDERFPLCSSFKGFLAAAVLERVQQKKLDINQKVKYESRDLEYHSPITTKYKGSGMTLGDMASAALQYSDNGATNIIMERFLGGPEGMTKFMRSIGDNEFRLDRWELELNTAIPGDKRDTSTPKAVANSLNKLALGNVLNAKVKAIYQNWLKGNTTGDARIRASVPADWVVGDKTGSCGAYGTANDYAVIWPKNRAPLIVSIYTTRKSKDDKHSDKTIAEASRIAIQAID
Procedure: as §1, §2, §3

[3] = system: KP1008 KPC-2; assay: Dose titration biapenem potentiation assay (MPC1); type: cell-based, Klebsiella pneumoniae; settings: biapenem 1 μg/mL
Procedure: (§4) The potency and spectrum of β-lactamase inhibitors is also determined by assessing their biapenem potentiation activity in a dose titration potentiation assay using strains expressing serine carbapemenases (such as KPC). The potentiation effect is observed as the ability of BLI compounds to inhibit growth in the presence of sub-inhibitory concentration of biapenem. […] Biapenem is present in the test medium at 1 μg/mL. Compounds tested at the highest concentration of 40 μg/mL. […] Table 5 summarizes BLI potency of biapenem potentiation (MPC1). Biapenem MIC for each strain is also shown.

[4] = system: KP1004 KPC-2; assay: Dose titration biapenem potentiation assay (MPC1); type: cell-based, Klebsiella pneumoniae; settings: biapenem 1 μg/mL
Procedure: as §4

[5] = system: ECL1004 NMC-A; assay: Dose titration biapenem potentiation assay (MPC1); type: cell-based, Enterobacter cloacae; settings: biapenem 1 μg/mL
Procedure: as §4

[6] = system: EC1007 KPC-3; assay: Dose titration biapenem potentiation assay (MPC1); type: cell-based, Escherichia coli; settings: biapenem 1 μg/mL
Procedure: as §4

Structure (SMILES)	IC50 [1] [µM]	IC50 [2] [µM]	BPM MPC1 KP1008 KPC-2 [3]	BPM MPC1 KP1004 KPC-2 [4]	BPM MPC1 ECL1004 NMC-A [5]	BPM MPC1 EC1007 KPC-3 [6]
N[C@H]1CCC(CC(=O)O)OB1O (stereo partly drawn) [Compound 7, 2-((3R)-3-amino-2-hydroxy-1,2-oxaborinan-6-yl)acetic acid hydrochloride]	> 5.78	> 5.78	–	–	–	–
O=C(O)CC1CCC[C@H](NC(=O)Cc2cccs2)B(O)O1 (stereo partly drawn) [Compound 63, 2-((3R)-2-hydroxy-3-(2-(thiophen-2-yl)acetamido)-1,2-oxaborepan-7-yl)acetic acid]	–	–	X (X = MPC1 of less than 1 μg/mL.)	Y (Y = MPC1 of 1 μg/mL to 5 μg/mL.)	Y (Y = MPC1 of 1 μg/mL to 5 μg/mL.)	Y (Y = MPC1 of 1 μg/mL to 5 μg/mL.)
Cc1nc2ccccc2n1CCC(=O)N[C@H]1CC[C@@H](CC(=O)O)OB1O [Compound 55]	–	–	X (X = MPC1 of less than 1 μg/mL.)	X (X = MPC1 of less than 1 μg/mL.)	X (X = MPC1 of less than 1 μg/mL.)	X (X = MPC1 of less than 1 μg/mL.)
O=C(O)C[C@@H]1CC[C@H](NC(=O)CCc2nnc(-c3ccccc3)o2)B(O)O1 [Compound 60, 2-((3R,6S)-2-hydroxy-3-(3-(5-phenyl-1,3,4-oxadiazol-2-yl)propanamido)-1,2-oxaborinan-6-yl)acetic acid]	–	–	X (X = MPC1 of less than 1 μg/mL.)	X (X = MPC1 of less than 1 μg/mL.)	X (X = MPC1 of less than 1 μg/mL.)	X (X = MPC1 of less than 1 μg/mL.)
N[C@H]1CC[C@@H](CC(=O)N[C@H]2CC[C@@H](CC(=O)O)OB2O)CC1 [Compound 50, 2-((3R,6S)-3-(2-(4-aminocyclohexyl)acetamido)-2-hydroxy-1,2-oxaborinan-6-yl)acetic acid]	–	–	X (X = MPC1 of less than 1 μg/mL.)	X (X = MPC1 of less than 1 μg/mL.)	X (X = MPC1 of less than 1 μg/mL.)	X (X = MPC1 of less than 1 μg/mL.)
NC(Cc1cccnc1)C(=O)N[C@H]1CC[C@@H](CC(=O)O)OB1O (stereo partly drawn) [Compound 42, 2-((3R,6S)-3-(2-amino-3-(pyridin-3-yl)propanamido)-2-hydroxy-1,2-oxaborinan-6-yl)acetic acid]	–	–	X (X = MPC1 of less than 1 μg/mL.)	X (X = MPC1 of less than 1 μg/mL.)	Y (Y = MPC1 of 1 μg/mL to 5 μg/mL.)	X (X = MPC1 of less than 1 μg/mL.)
Nc1nc(CC(=O)N[C@H]2CC[C@@H](CC(=O)O)OB2O)cs1 [Compound 39, 2-((3R,6S)-3-(2-(2-aminothiazol-4-yl)acetamido)-2-hydroxy-1,2-oxaborinan-6-yl)acetic acid]	–	–	X (X = MPC1 of less than 1 μg/mL.)	X (X = MPC1 of less than 1 μg/mL.)	X (X = MPC1 of less than 1 μg/mL.)	X (X = MPC1 of less than 1 μg/mL.)
NC1(CC(=O)N[C@H]2CC[C@@H](CC(=O)O)OB2O)CCCCC1 [Compound 51, 2-((3R,6S)-3-(2-(1-aminocyclohexyl)acetamido)-2-hydroxy-1,2-oxaborinan-6-yl)acetic acid]	–	–	X (X = MPC1 of less than 1 μg/mL.)	X (X = MPC1 of less than 1 μg/mL.)	Y (Y = MPC1 of 1 μg/mL to 5 μg/mL.)	X (X = MPC1 of less than 1 μg/mL.)
